Assay results as given in patent publication US10857136B2, “Compounds for use in the prevention and/or treatment of non-alcoholic fat liver disease and non-alcoholic steatohepatitis” (SJT MOLECULAR RESEARCH, SL, priority 2017, dated 2020).

Columns and labels:
Type in all cases: in vivo
[1] = tested on: DIO mice (C57Bl/6J male mice); assay: Insulin resistance (HOMA-IR), 36 days assay in DIO mice; conditions: 50 mg/kg orally twice daily for 36 days, days 1, 8, 15, 22, 29 and 36, vs saline control, similar to metformin 150 mg/kg
Method: To assess the performance of the compounds disclosed in decreasing insulin resistance, DIO mice (C57Bl/6J male mice) were treated with hydrochloride salts of compounds 4a, 5a; and with compound 7a during 36 days, versus a control treated with saline (0.9% NaCl) and versus DIO mice treated with metformin as a positive control.
(§1) For the assessment, 60 C57Bl/6 J male mice (16-week-old at delivery and 40 g of average weight), obtained from Charles River France put on high fat diet for 10 weeks. The animals were housed in ventilated and enriched housing cages (310×125×127 mm^3) throughout the experimental phase. Animals' cages litters were changed at least once a week. Mice were housed in groups of 10 mice on a normal 12 hours light cycle (at 08:00 pm lights were switched off), at 22±2° C. and 50±10% relative humidity. After reception, mice were maintained for three additional acclimation weeks. During the whole test (acclimation+treatment phase) a high fat diet (D12492 purchased from Research Diet Inc.; 60% fat) and tap water were provided ad libitum.
After the acclimation period, mice were fasted for 6 hours and blood glucose and plasma insulin were measured. Ten animals, those with lower blood glucose/plasma insulin, were discarded from the study. […]
Body weight were weekly measured as well as blood glucose and plasma insulin after a 6 hour-fasting.
Blood glucose was measured by sampling blood from the tip of the tail: a drop of blood is collected and placed on a glucometer strip (Accu-Check® glucometer, Roche, Switzerland). Plasma insulin was detected via ELISA (Elisa Kit, Eurobio, France) using 5 μl samples.
The Homeostatic model assessment-insulin resistance index (HOMA-IR), which is used to quantify insulin resistance, was calculated from fasting blood glucose, and plasma insulin values as follows: HOMA-IR=(mM glucose×μU/mL insulin)/22.5, being this constant a normalizing factor (Matthews et al., 1985, Diabetologia 28(7), 412-9).

[2] = tested on: DIO mice (C57Bl/6 J male mice); assay: Liver lipid content, 36 days assay in DIO mice (colorimetric kits); conditions: 50 mg/kg orally twice daily, after 36 days, vs saline control
Method: To assess the performance of the compounds disclosed in decreasing hepatic lipid content, DIO mice (C57Bl/6 J male mice) were treated with a hydrochloride salt of compound 4a; and with compound 7a during 36 days, versus a control of DIO mice treated with saline (0.9% NaCl) and versus DIO mice treated with Metformin as a positive control.
as §1, with “France, were” for “France”, “assessment” for “test”, “Inc;” for “Inc.;”
(§2) After the acclimation period, mice were fasted for 6 hours and blood glucose and plasma insulin were measured. Ten animals, those with lower blood glucose/plasma insulin, were discarded from the study. Then, the others were randomized into 5 homogenous groups (n=10 mice per group) according to their blood glucose/plasma insulin levels (HOMA-IR) and body weight. Mice were treated orally twice daily for 36 days with either saline solution (control group), SJT test compound (4a, 7a; 50 mg/kg) or metformin (150 mg/kg).
Finally, mice were sacrificed, and liver was collected, weighted and stored at −80° C. for additional analysis. Liver samples were dissected for liver lipids assay. Liver lipids were assayed using colorimetric commercial assay kits, from liver samples homogenate after lipid solubilization in deoxycholate as described by Miao et al., J Lipid Res, 2004, 45, 1410-17. Samples were homogenized with an ultrasound probe with 500 μl distilled water during few seconds. Then cholic acid at 1% is added to make lipids soluble. The measurement of the different lipids was then performed using colorimetric kits from Sobioda, France.

[3] = tested on: DIO mice (C57Bl/6J male mice); assay: Liver weight, 36 days assay in DIO mice; conditions: 50 mg/kg orally twice daily, after 36 days, vs saline control and metformin 150 mg/kg
Method: To assess the performance of the compounds disclosed decreasing liver overweight, DIO mice (C57Bl/6J male mice) were treated with compounds 4a and 5a during 36 days, versus a control of DIO mice treated with vehicle (0.9% NaCl) and DIO mice treated with Metformin as a positive control.
as §1, with “C57Bl/6J” for “C57Bl/6 J”, “France, were” for “France”, “(D12492;” for “(D12492”, “Inc” for “Inc.;”
as §2, with “Mice were treated orally twice daily for 36 days with either saline solution (control group), SJT test compound (4a, 7a; 50 mg/kg) or metformin (150 mg/kg).” left out

COc1ccc(-c2nc(C(=O)N/N=C/c3ccccc3)cc3c2[nH]c2ccccc23)cc1 [Compound 7a, 3-(carbohydrazyl-N′-phenylsubstitute)-1-benzosubstitute-β-carbolinic-3-carbohydrazide]
insulin resistance (HOMA-IR) [1]: lower insulin resistance compared to the control animals | hepatic cholesterol [2]: lower lipid levels than untreated control animals | hepatic fatty acids [2]: lower lipid levels than untreated control animals | hepatic triglycerides [2]: lower lipid levels than untreated control animals

COc1ccc(-c2nc(C(=O)NCCCN)cc3c2[nH]c2ccccc23)cc1 [Compound 5a, N(-propylamine)-1-benzosubstituted-β-carboline-3-carboxamide]
insulin resistance (HOMA-IR) [1]: lower insulin resistance compared to the control animals | liver weight (liver overweight) [3]: lower liver weight than either mice treated with metformin or than the control animals
